Data as given in the kinase profiling compilation of Christmann-Franck et al. (2016).

Tests used:
Assay in all cases: radiometric filter-binding kinase assay, Kinase HotSpot
Conditions in all cases: compound 0.5 µM; ATP 10 µM
ERBB2 (human) = ERBB2 (human) (UniProt P04626)
CDK5 CDK5R1 p25 (human) = CDK5 CDK5R1 p25 (human) (UniProt Q00535+Q15078)
AKT3 (human) = AKT3 (human) (UniProt Q9Y243)
MAP3K2 (human) = MAP3K2 (human) (UniProt Q9Y2U5)
MAPK10 (human) = MAPK10 (human) (UniProt P53779)
PTK2 (human) = PTK2 (human) (UniProt Q05397)
MAP3K14 (human) = MAP3K14 (human) (UniProt Q99558)
GSK3A (human) = GSK3A (human) (UniProt P49840)
NUAK2 (human) = NUAK2 (human) (UniProt Q9H093)
EPHA7 (human) = EPHA7 (human) (UniProt Q15375)
NTRK1 (human) = NTRK1 (human) (UniProt P04629)
RPS6KA1 KD1 KD2 (human) = RPS6KA1 KD1 KD2 (human) (UniProt Q15418)
CAMK2A (human) = CAMK2A (human) (UniProt Q9UQM7)
RPS6KA4 KD2 (human) = RPS6KA4 KD2 (human) (UniProt O75676)
DAPK2 (human) = DAPK2 (human) (UniProt Q9UIK4)
RPS6KA2 KD1 KD2 (human) = RPS6KA2 KD1 KD2 (human) (UniProt Q15349)
TEK (human) = TEK (human) (UniProt Q02763)
MYLK2 (human) = MYLK2 (human) (UniProt Q9H1R3)
PRKACA (human) = PRKACA (human) (UniProt P17612)
FGR (human) = FGR (human) (UniProt P09769)
ABL2 (human) = ABL2 (human) (UniProt P42684)
MLTK (human) = MLTK (human) (UniProt Q9NYL2)
ALK (human) = ALK (human) (UniProt Q9UM73)
MAP3K7 TAB1 (human) = MAP3K7 TAB1 (human) (UniProt O43318+Q15750)
PKN2 (human) = PKN2 (human) (UniProt Q16513)
PRKCG (human) = PRKCG (human) (UniProt P05129)
ZAP70 (human) = ZAP70 (human) (UniProt P43403)
CSNK1A1 (human) = CSNK1A1 (human) (UniProt P48729)
HCK (human) = HCK (human) (UniProt P08631)
CHEK2 (human) = CHEK2 (human) (UniProt O96017)
TTK (human) = TTK (human) (UniProt P33981)
MKNK2 (human) = MKNK2 (human) (UniProt Q9HBH9)
HIPK4 (human) = HIPK4 (human) (UniProt Q8NE63)
PLK3 (human) = PLK3 (human) (UniProt Q9H4B4)
MARK3 (human) = MARK3 (human) (UniProt P27448)
CDK9 CCNT1 (human) = CDK9 CCNT1 (human) (UniProt P50750+O60563)
EPHB2 (human) = EPHB2 (human) (UniProt P29323)
CDK6 CCND3 (human) = CDK6 CCND3 (human) (UniProt P30281+Q00534)
MAP3K8 (human) = MAP3K8 (human) (UniProt P41279)
SRPK3 (human) = SRPK3 (human) (UniProt Q9UPE1)
MAPK9 (human) = MAPK9 (human) (UniProt P45984)

Sequence of CDK9 CCNT1 (human) (O60563 whole entry, looked up): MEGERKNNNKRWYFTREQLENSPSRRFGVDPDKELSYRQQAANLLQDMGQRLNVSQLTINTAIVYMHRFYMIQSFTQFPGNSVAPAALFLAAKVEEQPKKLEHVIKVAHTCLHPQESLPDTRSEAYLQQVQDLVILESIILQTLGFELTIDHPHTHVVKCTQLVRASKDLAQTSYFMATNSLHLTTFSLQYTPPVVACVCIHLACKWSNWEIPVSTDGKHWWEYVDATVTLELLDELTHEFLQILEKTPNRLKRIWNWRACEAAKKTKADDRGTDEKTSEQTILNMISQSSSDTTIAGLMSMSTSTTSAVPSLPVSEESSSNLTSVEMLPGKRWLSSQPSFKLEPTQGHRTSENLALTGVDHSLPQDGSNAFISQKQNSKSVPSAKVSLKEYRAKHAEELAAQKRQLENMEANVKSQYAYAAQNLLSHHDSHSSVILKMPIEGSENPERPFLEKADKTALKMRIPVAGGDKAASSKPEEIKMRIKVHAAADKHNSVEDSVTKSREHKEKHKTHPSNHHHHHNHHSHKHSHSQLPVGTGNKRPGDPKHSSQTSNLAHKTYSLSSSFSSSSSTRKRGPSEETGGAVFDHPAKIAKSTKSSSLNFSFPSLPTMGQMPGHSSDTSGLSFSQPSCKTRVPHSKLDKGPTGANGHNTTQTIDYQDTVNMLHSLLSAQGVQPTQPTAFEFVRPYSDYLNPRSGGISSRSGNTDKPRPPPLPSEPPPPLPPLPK
Sequence of CDK9 CCNT1 (human) (P50750 whole entry, looked up): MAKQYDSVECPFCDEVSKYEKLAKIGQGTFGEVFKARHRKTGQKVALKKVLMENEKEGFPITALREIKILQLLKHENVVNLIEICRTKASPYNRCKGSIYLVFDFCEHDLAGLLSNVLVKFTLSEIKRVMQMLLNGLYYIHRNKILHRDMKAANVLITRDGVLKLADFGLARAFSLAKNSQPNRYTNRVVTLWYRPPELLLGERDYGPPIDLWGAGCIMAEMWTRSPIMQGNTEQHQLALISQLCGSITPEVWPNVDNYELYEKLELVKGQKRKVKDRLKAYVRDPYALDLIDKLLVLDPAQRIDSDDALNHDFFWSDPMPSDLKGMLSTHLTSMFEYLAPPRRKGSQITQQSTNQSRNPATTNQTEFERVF
Sequence of MKNK2 (human) (Q9HBH9 whole entry, looked up): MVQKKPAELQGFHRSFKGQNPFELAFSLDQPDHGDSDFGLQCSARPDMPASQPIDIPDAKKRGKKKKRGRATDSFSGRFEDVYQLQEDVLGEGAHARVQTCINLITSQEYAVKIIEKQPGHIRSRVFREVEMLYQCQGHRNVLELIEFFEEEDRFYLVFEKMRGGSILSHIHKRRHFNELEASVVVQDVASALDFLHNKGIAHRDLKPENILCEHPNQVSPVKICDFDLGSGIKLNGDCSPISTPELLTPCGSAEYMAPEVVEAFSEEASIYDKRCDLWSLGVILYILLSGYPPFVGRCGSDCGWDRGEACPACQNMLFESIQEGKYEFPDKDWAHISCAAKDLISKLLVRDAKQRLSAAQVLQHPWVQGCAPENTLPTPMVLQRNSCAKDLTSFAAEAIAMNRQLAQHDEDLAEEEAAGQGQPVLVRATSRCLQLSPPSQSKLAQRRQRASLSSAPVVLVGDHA
Sequence of MARK3 (human) (P27448 whole entry, looked up): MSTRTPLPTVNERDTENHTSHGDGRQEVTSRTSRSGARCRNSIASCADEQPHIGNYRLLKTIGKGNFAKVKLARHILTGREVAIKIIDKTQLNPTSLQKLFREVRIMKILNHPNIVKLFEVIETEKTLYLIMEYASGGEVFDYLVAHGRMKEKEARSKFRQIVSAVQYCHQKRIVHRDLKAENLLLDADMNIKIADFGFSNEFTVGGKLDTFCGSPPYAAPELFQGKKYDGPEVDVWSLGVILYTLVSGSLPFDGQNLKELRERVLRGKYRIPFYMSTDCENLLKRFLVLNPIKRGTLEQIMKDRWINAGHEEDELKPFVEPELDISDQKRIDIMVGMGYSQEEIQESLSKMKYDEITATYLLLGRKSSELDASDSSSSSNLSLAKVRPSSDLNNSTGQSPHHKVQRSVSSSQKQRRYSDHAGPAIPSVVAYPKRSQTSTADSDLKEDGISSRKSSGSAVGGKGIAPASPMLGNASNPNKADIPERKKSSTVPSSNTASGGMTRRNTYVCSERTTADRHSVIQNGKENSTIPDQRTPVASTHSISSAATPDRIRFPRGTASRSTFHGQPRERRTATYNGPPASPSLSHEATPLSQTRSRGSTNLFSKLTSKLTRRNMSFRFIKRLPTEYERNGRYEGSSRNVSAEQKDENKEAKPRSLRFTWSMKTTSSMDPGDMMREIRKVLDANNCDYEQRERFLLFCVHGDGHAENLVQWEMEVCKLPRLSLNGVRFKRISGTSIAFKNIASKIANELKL
Sequence of TEK (human) (Q02763 whole entry, looked up): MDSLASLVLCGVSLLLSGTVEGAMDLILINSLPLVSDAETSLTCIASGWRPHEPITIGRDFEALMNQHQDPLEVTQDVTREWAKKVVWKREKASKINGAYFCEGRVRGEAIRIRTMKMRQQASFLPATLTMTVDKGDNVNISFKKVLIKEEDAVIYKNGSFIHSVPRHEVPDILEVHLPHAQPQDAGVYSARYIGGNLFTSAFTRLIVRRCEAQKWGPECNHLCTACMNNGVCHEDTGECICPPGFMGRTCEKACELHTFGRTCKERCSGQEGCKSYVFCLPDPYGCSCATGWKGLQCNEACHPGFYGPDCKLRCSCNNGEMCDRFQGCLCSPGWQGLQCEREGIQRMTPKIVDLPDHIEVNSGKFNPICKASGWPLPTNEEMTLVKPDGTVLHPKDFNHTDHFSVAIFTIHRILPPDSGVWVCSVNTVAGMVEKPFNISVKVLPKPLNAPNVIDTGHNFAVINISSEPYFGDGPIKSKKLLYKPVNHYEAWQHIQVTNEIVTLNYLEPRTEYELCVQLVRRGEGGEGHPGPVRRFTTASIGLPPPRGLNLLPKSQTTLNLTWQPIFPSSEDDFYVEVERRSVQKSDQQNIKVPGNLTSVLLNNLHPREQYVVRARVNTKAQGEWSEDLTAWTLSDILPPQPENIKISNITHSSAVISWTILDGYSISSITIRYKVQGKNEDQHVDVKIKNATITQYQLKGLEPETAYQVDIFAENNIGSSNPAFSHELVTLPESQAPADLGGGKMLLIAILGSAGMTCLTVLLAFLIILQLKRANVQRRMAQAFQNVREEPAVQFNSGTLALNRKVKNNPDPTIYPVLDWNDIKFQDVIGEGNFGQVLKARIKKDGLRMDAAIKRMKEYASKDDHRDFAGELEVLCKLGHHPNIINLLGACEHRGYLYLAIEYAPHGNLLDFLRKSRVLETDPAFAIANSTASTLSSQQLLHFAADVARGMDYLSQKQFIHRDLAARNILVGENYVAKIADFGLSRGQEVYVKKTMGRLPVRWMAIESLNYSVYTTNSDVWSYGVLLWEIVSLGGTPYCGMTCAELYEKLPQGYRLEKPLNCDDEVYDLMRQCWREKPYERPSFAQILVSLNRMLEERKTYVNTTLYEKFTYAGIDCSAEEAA
Sequence of NUAK2 (human) (Q9H093 whole entry, looked up): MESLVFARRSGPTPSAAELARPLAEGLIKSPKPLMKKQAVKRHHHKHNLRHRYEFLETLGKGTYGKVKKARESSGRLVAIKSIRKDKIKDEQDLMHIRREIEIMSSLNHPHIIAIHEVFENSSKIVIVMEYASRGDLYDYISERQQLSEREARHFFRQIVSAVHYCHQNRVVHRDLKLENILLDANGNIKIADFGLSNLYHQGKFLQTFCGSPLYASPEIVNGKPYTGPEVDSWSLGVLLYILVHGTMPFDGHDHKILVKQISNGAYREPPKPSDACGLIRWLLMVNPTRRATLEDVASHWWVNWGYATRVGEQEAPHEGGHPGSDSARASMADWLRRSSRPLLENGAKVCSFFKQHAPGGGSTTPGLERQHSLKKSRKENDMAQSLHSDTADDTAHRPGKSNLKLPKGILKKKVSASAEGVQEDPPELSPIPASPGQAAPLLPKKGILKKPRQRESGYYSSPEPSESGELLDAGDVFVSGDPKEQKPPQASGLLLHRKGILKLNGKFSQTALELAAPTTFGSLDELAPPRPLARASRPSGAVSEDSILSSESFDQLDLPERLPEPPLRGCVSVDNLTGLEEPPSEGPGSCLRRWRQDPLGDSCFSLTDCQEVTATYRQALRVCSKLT
Sequence of CSNK1A1 (human) (P48729 whole entry, looked up): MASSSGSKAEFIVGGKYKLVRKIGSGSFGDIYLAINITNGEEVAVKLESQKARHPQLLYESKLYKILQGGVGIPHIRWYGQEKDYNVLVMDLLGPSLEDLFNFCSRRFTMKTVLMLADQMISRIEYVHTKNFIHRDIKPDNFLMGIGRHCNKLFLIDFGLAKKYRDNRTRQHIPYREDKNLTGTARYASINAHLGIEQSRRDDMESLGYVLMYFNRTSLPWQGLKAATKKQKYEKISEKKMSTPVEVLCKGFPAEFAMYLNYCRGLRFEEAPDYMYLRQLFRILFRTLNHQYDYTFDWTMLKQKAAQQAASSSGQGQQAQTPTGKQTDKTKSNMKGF
Sequence of GSK3A (human) (P49840 whole entry, looked up): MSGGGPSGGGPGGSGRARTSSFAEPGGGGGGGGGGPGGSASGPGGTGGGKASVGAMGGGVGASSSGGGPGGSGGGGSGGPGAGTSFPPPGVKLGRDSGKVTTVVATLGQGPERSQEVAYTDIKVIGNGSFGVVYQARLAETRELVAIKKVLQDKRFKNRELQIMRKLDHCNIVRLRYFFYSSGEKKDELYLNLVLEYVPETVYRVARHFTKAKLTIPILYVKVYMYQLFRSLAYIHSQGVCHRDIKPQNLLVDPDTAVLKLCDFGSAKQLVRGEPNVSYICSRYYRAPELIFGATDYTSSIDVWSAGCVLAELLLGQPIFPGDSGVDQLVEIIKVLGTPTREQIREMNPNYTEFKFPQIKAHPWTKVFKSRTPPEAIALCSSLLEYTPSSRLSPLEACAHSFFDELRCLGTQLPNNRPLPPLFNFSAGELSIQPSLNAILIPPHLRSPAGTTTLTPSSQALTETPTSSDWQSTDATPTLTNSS

| Compound | residual activity (ERBB2 (human)) | residual activity (CDK5 CDK5R1 p25 (human)) | residual activity (MAP3K2 (human)) | residual activity (MAPK10 (human)) | residual activity (PTK2 (human)) | residual activity (MAP3K14 (human)) | residual activity (GSK3A (human)) | residual activity (NUAK2 (human)) | residual activity (EPHA7 (human)) | residual activity (RPS6KA1 KD1 KD2 (human)) | residual activity (CAMK2A (human)) | residual activity (RPS6KA4 KD2 (human)) | residual activity (DAPK2 (human)) | residual activity (RPS6KA2 KD1 KD2 (human)) | residual activity (TEK (human)) | residual activity (MYLK2 (human)) | residual activity (PRKACA (human)) | residual activity (FGR (human)) | residual activity (ABL2 (human)) | residual activity (MLTK (human)) | further results |
| --- | --- | --- | --- | --- | --- | --- | --- | --- | --- | --- | --- | --- | --- | --- | --- | --- | --- | --- | --- | --- | --- |
| Cn1sc(=O)n(Cc2ccccc2)c1=O | 106% | 103% | 94.7% | 91.1% | 99.5% | 81.6% | 94.5% | 97.7% | 105% | 97.6% | 106% | 99% | 94% | 104% | 90.9% | 101% | 105% | 101% | 96.7% | 100% | residual activity (AKT3 (human)): 96.6%; residual activity (NTRK1 (human)): 99.3%; residual activity (ALK (human)): 94.1%; residual activity (MAP3K7 TAB1 (human)): 105%; residual activity (PKN2 (human)): 97.2%; residual activity (PRKCG (human)): 86.6%; residual activity (ZAP70 (human)): 102%; residual activity (CSNK1A1 (human)): 99.5%; residual activity (HCK (human)): 103%; residual activity (CHEK2 (human)): 108%; residual activity (TTK (human)): 101%; residual activity (MKNK2 (human)): 92.1%; residual activity (HIPK4 (human)): 98.2%; residual activity (PLK3 (human)): 99.1%; residual activity (MARK3 (human)): 97.1%; residual activity (CDK9 CCNT1 (human)): 94.2%; residual activity (EPHB2 (human)): 88.5%; residual activity (CDK6 CCND3 (human)): 100%; residual activity (MAP3K8 (human)): 97.1%; residual activity (SRPK3 (human)): 97.3% |
| CC(C)[C@H](CO)Nc1nc(Nc2cc(N)cc(Cl)c2)c2ncn(C(C)C)c2n1 | 92.9% | 3.31% | 83.1% | 94.6% | 59.5% | 100% | 101% | 81.4% | 80.2% | 37.2% | 83.9% | 89.3% | 101% | 48.7% | 92.5% | 99.5% | 101% | 15% | 21.3% | 92.3% | residual activity (NTRK1 (human)): 45.4%; residual activity (ALK (human)): 79.6%; residual activity (MAP3K7 TAB1 (human)): 51.3%; residual activity (PKN2 (human)): 98%; residual activity (PRKCG (human)): 107%; residual activity (ZAP70 (human)): 102%; residual activity (CSNK1A1 (human)): 75.5%; residual activity (HCK (human)): 27.3%; residual activity (CHEK2 (human)): 96.3%; residual activity (MAPK9 (human)): 99.8%; residual activity (TTK (human)): 84.5%; residual activity (MKNK2 (human)): 113%; residual activity (HIPK4 (human)): 96.4%; residual activity (PLK3 (human)): 62.8%; residual activity (MARK3 (human)): 85.2%; residual activity (EPHB2 (human)): 73.6%; residual activity (MAP3K8 (human)): 109%; residual activity (SRPK3 (human)): 37.7% |
| O=C1Cc2c([nH]c3ccc(Br)cc23)-c2ccccc2N1 | 103% | 64.8% | 94.2% | 89.6% | 94.3% | 106% | 5.87% | 71.1% | 101% | 90.8% | 105% | 108% | 100% | 94.9% | 106% | 96.8% | 102% | 74.4% | 84.9% | 88.5% | residual activity (AKT3 (human)): 105%; residual activity (ALK (human)): 90.8%; residual activity (MAP3K7 TAB1 (human)): 84.2%; residual activity (PKN2 (human)): 96.8%; residual activity (PRKCG (human)): 93.8%; residual activity (ZAP70 (human)): 93.6%; residual activity (CSNK1A1 (human)): 95.1%; residual activity (HCK (human)): 85.5%; residual activity (CHEK2 (human)): 59%; residual activity (MAPK9 (human)): 93.8%; residual activity (TTK (human)): 80.9%; residual activity (MKNK2 (human)): 102%; residual activity (HIPK4 (human)): 105%; residual activity (PLK3 (human)): 96%; residual activity (MARK3 (human)): 76.8%; residual activity (CDK9 CCNT1 (human)): 31.3%; residual activity (EPHB2 (human)): 95.5%; residual activity (CDK6 CCND3 (human)): 94.4%; residual activity (MAP3K8 (human)): 98.6%; residual activity (SRPK3 (human)): 100% |
| COc1ccc(CNC(=O)Nc2ncc([N+](=O)[O-])s2)cc1 | 96.9% | 97.7% | 94.1% | 96.1% | 101% | 84.2% | 13.5% | 89.9% | 96.6% | 96.4% | 98.8% | 101% | 93.3% | 100% | 94% | 98.5% | 96.9% | 92.4% | 97.9% | 101% | residual activity (AKT3 (human)): 95.9%; residual activity (ALK (human)): 100%; residual activity (MAP3K7 TAB1 (human)): 99.3%; residual activity (PKN2 (human)): 101%; residual activity (PRKCG (human)): 99.8%; residual activity (ZAP70 (human)): 102%; residual activity (CSNK1A1 (human)): 92.4%; residual activity (HCK (human)): 96.7%; residual activity (CHEK2 (human)): 99.2%; residual activity (MAPK9 (human)): 135%; residual activity (TTK (human)): 98.9%; residual activity (MKNK2 (human)): 95.7%; residual activity (HIPK4 (human)): 103%; residual activity (PLK3 (human)): 101%; residual activity (MARK3 (human)): 105%; residual activity (CDK9 CCNT1 (human)): 88.1%; residual activity (EPHB2 (human)): 88.4%; residual activity (CDK6 CCND3 (human)): 99.1%; residual activity (MAP3K8 (human)): 96.2%; residual activity (SRPK3 (human)): 100% |
| Nc1nccc(-c2c(-c3ccc(F)cc3)ncn2C2CCNCC2)n1 | 93.7% | 95.4% | 94% | 105% | 94.1% | 107% | 97.5% | 122% | 94% | 96.7% | 100% | 98.7% | 94.1% | 99.3% | 101% | 103% | 83% | 95.9% | 95.1% | 98% | residual activity (AKT3 (human)): 92.6%; residual activity (NTRK1 (human)): 100%; residual activity (ALK (human)): 102%; residual activity (MAP3K7 TAB1 (human)): 96.9%; residual activity (PKN2 (human)): 97.1%; residual activity (PRKCG (human)): 87.8%; residual activity (ZAP70 (human)): 92.3%; residual activity (CSNK1A1 (human)): 2.82%; residual activity (HCK (human)): 95.5%; residual activity (CHEK2 (human)): 101%; residual activity (TTK (human)): 107%; residual activity (MKNK2 (human)): 92.1%; residual activity (HIPK4 (human)): 96.6%; residual activity (PLK3 (human)): 97.8%; residual activity (MARK3 (human)): 103%; residual activity (CDK9 CCNT1 (human)): 87.1%; residual activity (EPHB2 (human)): 103%; residual activity (CDK6 CCND3 (human)): 95.5%; residual activity (MAP3K8 (human)): 102%; residual activity (SRPK3 (human)): 99.3% |
